Entries after “also recorded” stand apart in the source; their conditions may differ. Counter-ions that a name gives are not always drawn. Like-named read-outs stand apart in the source and are kept apart here.
How the values were obtained:
[1] = tested on: SW48 human colon cancer cell line; experiment: SW48 human colon cancer xenograft in immunodeficient mice (Example 5); format: in vivo, human (xenograft in immunodeficient NIH-1 mice)
Source text: (§1) In these four examples, three xenograft lines of human colon cancer were selected to test the effectiveness of various drugs or compounds in treating human colon cancer. These xenograft lines included the following: (1) A moderate-to-poorly differentiated human colon cancer HT-29; (2) poorly differentiated colon cancer lines designated CASE; and (3) SW48. Liebowitz, A. et al., Cancer Res. 36:4562 (1976); and Fogh, J., et al., Human Tumor Cells […], J. Fogh, ed. Plenum Press, New York, pp. 115-159 (1975). The HT-29, CASE and SW48 cell lines were implanted into immunodeficient NIH-1 mice. Each control or drug-treated group included 6 males. Tumor fragments were implanted on day 0. For each implant, 50 mg of wet weight finely minced tumor tissue in 0.5 ml EMEM (Gibco, Grand Island, N.Y.) was injected under the skin over the right dorsal chest region. The drugs were formulated in Tween 80:0.15 NaCl and injected subcutaneously, with the exception of doxorubicin, which was injected intravenously. The treatment started on day 7 and continued 2x/week for 5-6 weeks. Drug doses were based on an established median toxic dose for the schedule applied. Controls were treated with the solvent only. The tumors were measured in three dimensions with a caliper, and tumor volume calculated. The care and treatment of experimental mice was in accordance with institutional guidelines.
In Example 5, a course of treatment was carried out with the SW48 human colon cancer cell line. This tumor line is extremely unresponsive to treatment. Liebowitz, A., et al., Cancer Res. 36:4562 (1976); and Fogh, J., et al., Human Tumor Cells in Vitro, J. Fogh, ed. Plenum Press, New York, pp. 115-159 (1975).
It should be noted that the first course of treatments of the CASE and SW48 lines, described above, started with well-established tumors, averaging 0.2-0.25 cm^3 in volume. In Example 5, day=35 SW48 tumors (average size 2.5 cm^3), were selected for the first treatment with 9-amino-20(RS)-camptothecin. […]

CASE cell line = experiment: CASE human colon cancer xenograft in immunodeficient mice (Examples 3, 4, 6); format: in vivo, human (xenograft in immunodeficient NIH-1 mice)
Source text: as §1
In Example 3, the CASE cell line was employed.
Example 4 illustrates the results of an experiment in which a second course of treatment followed a first course of treatment. On day 51 after tumor implantation, mice with CASE tumors and minimal disease received the second course of therapy. These mice received a total of 14 injections (doses) of 12.5 mg/kg body weight/dose (FIG. 4).
(§2) Daily injections or 2 injections per week of 10,11-methylenedioxy-20(RS)-camptothecin (total doses 50-70 mg/kg of body weight) stopped the growth of day-7 CASE tumors for a period of 4-6 weeks in 6/6 mice. Five injections of 10,11-methylenedioxy-20(RS)-camptothecin sodium salt (10 mg/kg body weight/dose) stopped the growth of day-7 CASE tumors in 6/6 mice for a period of 4 weeks. Both drugs inhibited at 30 mg/kg body weight (total dose) the growth of metastases of human colon cancer in the liver of immunodeficient mice, and increased the survival of such mice by ~100% (from average of 23 to 46 days).

[2] = overall toxicity in tumor-bearing mice (Example 7); format: in vivo
Source text: Another important feature of the method provided by the present invention relates to the relatively low or no apparent overall toxicity of the camptothecin compounds administered in accordance herein. Overall toxicity can be judged using various criteria. For example, loss of body weight in a subject over 10% of the initially recorded body weight (i.e., before treatment) can be considered as one sign of toxicity. In addition, loss of overall mobility and activity and signs of diarrhea or cystitis in a subject can also be interpreted as evidence of toxicity. In one of the examples which follow, the overall toxicity of the camptothecin compounds was evaluated.
The overall toxicity of the colon tumor-inhibiting camptothecin compounds was next to be evaluated at various dosages. The overall toxicity of 9-amino-20(RS)-camptothecin, 10,11-methylenedioxy-camptothecin and the sodium salt of 10,11-methylenedioxy-camptothecin was evaluated in this example as follows: tumor fragments were implanted under the skin of 5-6 mice in each group beginning on day 0. The mice were injected with one of the compounds beginning on day 7 after visible signs that malignant growth of the implanted tumor had occurred. The injections of the compound were given at predetermined doses of 10 or 12.5 mg/kg of body weight per week for a total of 3-6 weeks. Injections were daily or given two times per week. The body weights of the controls (mice with tumors, injected with placebo) and that of the drug-treated mice were taken two times each week and recorded. Overall toxicity was determined in the following way: loss of body weight after treatment in a subject of more than 10% over the initial body weight of the subject recorded at the beginning of the experiment, was considered a sign of toxicity. The mice were also monitored for their ability to regain the lost body weight. Regaining entirely its lost body weight would therefore be a sign of low toxicity in a subject. In addition, mice were monitored for their overall mobility and activity as well as for signs of diarrhea or cystitis. Mobility/activity was judged on a sliding scale of 1 to 5. That is, a score of 1 indicated good mobility/activity and a score of 5 indicated poor mobility/activity. Diarrhea and cystitis were judged on a plus/minus basis.

subcutaneous tumors = format: in vivo, mice
human colon cancer HT-29 = experiment: HT-29 human colon cancer xenograft in immunodeficient mice (Example 2); format: in vivo, human (xenograft in immunodeficient NIH-1 mice)
Source text: as §1
In FIG. 2, 9-AC represents 9-amino-20(RS)-camptothecin. The means of tumor volumes in cubic centimeters (cm^3) were plotted against time; S.D. (standard deviation) of the means was less than 15% of the value.

topoisomerase I = experiment: topoisomerase I-directed screens; format: biochemical
[3] = tested on: metastases of human colon cancer in the liver; experiment: metastases of human colon cancer in the liver of immunodeficient mice (Example 6); format: in vivo; conditions: 30 mg/kg body weight (total dose); for increase of survival: from average of 23 days; for average survival: increased from 23 days
Description: as §2

colon cancer = conditions: cited from earlier work
mouse leukemias = conditions: in vivo; cited from earlier work
[4] = tested on: advanced incurable cancers; conditions: cited from earlier work
[5] = first course, 12.5 mg/kg body weight
[6] = daily or 2 injections per week, total doses 50-70 mg/kg
[7] = five injections, 10 mg/kg body weight/dose
[8] = daily treatment, total dose 25 mg/kg
[9] = twice/week treatment, total dose 50 mg/kg
[10] = patients with metastases to the liver

CCC1(O)C(=O)OCc2c1cc1n(c2=O)Cc2cc3c(N)cccc3nc2-1 (racemic) [9-amino-20(RS)-camptothecin]
long-term tumor-free survival (in excess of 7 months) ([1]; after second course, 75 mg/kg total dose): 6/6 | mice with NED or minimal disease [1, 5]: 6/6 | reduction in the volume of the tumors (average) ([1]; first treatment of day 35 tumors (average 2.5 cm^3), 6 doses of 12.5 mg/kg, twice a week): 91% | long-term tumor-free survival (in excess of 7 months) (CASE cell line; CASE tumors, after second course): 7/8 | mice with NED or minimal disease (CASE cell line; [5]): 6/6 | mice with NED (CASE cell line; second course, total of 14 doses of 12.5 mg/kg): 5/6 | mice with minimal disease (CASE cell line; second course, total of 14 doses of 12.5 mg/kg, of 6 mice): the other had minimal disease | gastrointestinal toxicity or sterile hemorrhagic cystitis ([2]; second course, 50-75 mg/kg): no signs | toxicity of second course of treatment ([2]; second course, 50-75 mg/kg body weight): more toxic than the first | Overall Toxicity ([2]; twice/week treatment, total dose 150 mg/kg, 150 mg/kg): no overall toxicity | Overall Toxicity ([2]; twice/week treatment, total dose 150 mg/kg, listed as 9-Amino-20(RS)-camptothecin, 150 mg/kg): none | Overall Toxicity: body weight loss ([2]; twice/week treatment, total dose 175 mg/kg (cumulative)): ≤ 20% | therapeutic response (in words) (subcutaneous tumors; mouse, in vivo): completely reducing subcutaneous tumors; also recorded: complete reduction of subcutaneous tumors | duration of remission (mean+S.D.) (human colon cancer HT-29; 10 mg/kg body weight/dose): 62 ± 20 days | mice with no evidence of disease (NED) or minimal disease (tumor volume=0.1 cm^3) (human colon cancer HT-29; 10 mg/kg/dose s.c., twice a week, 6 weeks): 5/6 | duration of remission (mean+S.D.) (human colon cancer HT-29; 12.5 mg/kg body weight/dose): 56 ± 15 days | mice with NED or minimal disease (human colon cancer HT-29; 12.5 mg/kg body weight/dose): 6/6 | reduction of tumor volume (average) (human colon cancer HT-29; second course, average tumor size 8.3 cm^3, total dose 60 mg/kg): 45%

CCC1(O)C(=O)OCc2c1cc1n(c2=O)Cc2cc3cc4c(cc3nc2-1)OCO4 (racemic) [10,11-methylenedioxy-20(RS)-camptothecin]
activity in topoisomerase I-directed screens (topoisomerase I): highly active | mice in which growth of day-7 tumors stopped (CASE cell line; [6]): 6/6 | period for which growth of day-7 tumors stopped (CASE cell line; [6]): 4-6 weeks | decrease of body weight ([2]; 70 mg/kg body weight (total dose)): less than 10% | Overall Toxicity ([2]; twice/week treatment, total dose 100 mg/kg, 100 mg/kg): no overall toxicity | Overall Toxicity ([2]; twice/week treatment, total dose 100 mg/kg, listed as 10,11-Methylenedioxy-20(RS), 100 mg/kg): none | Overall Toxicity ([2]; twice/week treatment, total dose 100 mg/kg, listed as 10,11-methylenedioxy-20(RS) camptothecin, 100 mg/kg): no overall toxicity | therapeutic response (in words) (subcutaneous tumors; 100 mg/kg, two times per week): complete reduction of subcutaneous tumors | therapeutic response (in words) (subcutaneous tumors; 100 mg/kg, two times per week, listed as 10,11-methylenedioxy-20(RS) camptothecin): completely reducing subcutaneous tumors | growth of metastases of human colon cancer in the liver [3]: inhibited | increase of survival [3]: ~ 100% | average survival [3]: 46 days

CCC1(O)C(=O)OCc2c1cc1n(c2=O)Cc2cc3cc(N)ccc3nc2-1 (racemic) [10-amino-20(RS)-camptothecin, reference compound]
toxic deaths ([2]; 25 mg/kg body weight): toxic deaths of all animals | Overall Toxicity: body weight loss ([2]; twice/week treatment, total dose 100 mg/kg): < 15%

CCC(O)(C(=O)O)c1cc2n(c(=O)c1CO)Cc1cc3cc4c(cc3nc1-2)OCO4 (racemic) [sodium salt of 10,11-methylenedioxy-20(RS)-camptothecin]
activity in topoisomerase I-directed screens (topoisomerase I): highly active | mice in which growth of day-7 tumors stopped (CASE cell line; [7]): 6/6 | period for which growth of day-7 tumors stopped (CASE cell line; [7]): 4 weeks | toxic deaths ([2]; 62.5 mg/kg body weight): toxic deaths of all animals | Overall Toxicity [2, 8]: animal deaths | Overall Toxicity: body weight loss [2, 8]: < 10% | Overall Toxicity ([2]; daily treatment, total dose 200 mg/kg): animal deaths | Overall Toxicity: body weight loss [2, 9]: 20% | Overall Toxicity ([2]; twice/week treatment, total dose 62.5 mg/kg): animal deaths | growth of metastases of human colon cancer in the liver [3]: inhibited | increase of survival [3]: ~ 100% | average survival [3]: 46 days

O=c1[nH]cc(F)c(=O)[nH]1 [5-fluorouracil]
effectiveness in treating colon cancer (colon cancer; human, in vivo): only marginally effective | cases with temporary improvement (colon cancer; [10]): ≤ 25% | overall survival (colon cancer; [10]): not significantly affected | growth-retardation of tumor implants (human colon cancer HT-29; 80 mg/kg of body weight/dose): only marginal growth-retardation

CC[C@@]1(O)C(=O)OCc2c1cc1n(c2=O)Cc2cc3ccccc3nc2-1 [20(S)-camptothecin, reference compound]
activity against mouse leukemias (mouse leukemias): effective against mouse leukemias | toxic deaths ([2]; 50 mg/kg body weight): toxic deaths of all animals | Overall Toxicity: body weight loss ([2]; twice/week treatment, total dose 28 mg/kg): > 15% | Overall Toxicity [2, 9]: animal deaths | Overall Toxicity ([2]; twice/week treatment, total dose 70 mg/kg): animal deaths

CN(Cc1cnc2nc(N)nc(N)c2n1)c1ccc(C(=O)N[C@@H](CCC(=O)O)C(=O)O)cc1 [methotrexate, reference compound]
growth-retardation of tumor implants (human colon cancer HT-29; 160 mg/kg body weight/dose): only marginal growth-retardation

CC[C@@](O)(C(=O)O)c1cc2n(c(=O)c1CO)Cc1cc3ccccc3nc1-2 [sodium salt of 20(S)-camptothecin]
limiting factor (toxicity) ([4]; patients with various cancers): Leukopenia | most prominent non-hematological complication ([4]; patients with various cancers): Hemorrhagic cystitis | gastrointestinal toxicity or sterile hemorrhagic cystitis observed among patients ([4]; patients): observed | clinical response ([4]; several patients, some with colorectal cancer, unresponsive to previous treatments): temporary relief of the disease | median survival (in words) ([4]; several patients, some with colorectal cancer): marginal prolongation of median survival

Reference: US5225404A, “Methods of treating colon tumors with tumor-inhibiting camptothecin compounds” (New York University, priority 1989, dated 1993)
